This note sets out measurements from patent US20060292158A1, “Method for the treatment of cancer using a novel pharmaceutical composition containing at least one dolastatin 10 derivative” (priority 2004, published 2006).

Read-outs that look alike come from different tables or passages of the source.

The test system of data set [1] is MAXF-401 human breast carcinoma xenograft. Nature of the data set: Antitumor activity in MAXF-401 subcutaneous xenograft in athymic nude mice, combination with capecitabine (Example 3). It counts as in vivo. The note with it: monotherapy 3, 4 or 6 mg/kg; one week after final injection; 2.5% DMSO control. The procedure: The MAXF-401 human breast carcinoma cell line was obtained from Prof Fiebig (University of Freiburg, Germany). This cell line was maintained in mice; the tumor fragments were implanted subcutaneously and serially passaged in mice prior to use.
One hundred (100) 5-week-old female athymic nude mice (BALB/c nu/nu) were purchased from Charles River Japan, Inc. (Yokohama, Japan). The mice were housed in an air-conditioned room (temperature 22±2° C., relative humidity 55±10%) under 12 h light/dark cycles. The mice were given sterilized CE-2 and tap water with 25μg/mL gentamycin ad libitum. […]
The in vivo evaluation procedure for anticancer drugs was based on the methods described by Plowman, et al. (1997) for xenograft models. […] The tumor volume and body weight of each mouse were measured twice a week. […] One week after the final injection, tumor growth inhibition (TGI) was calculated using the formula (1-T/C)×100 (%), where T (treated group) and C (control group) represent the mean tumor volume change. ED50 values were calculated from values of tumor growth inhibition on day 21 using the XL fit program. […]
Packaged software (SAS preclinical package version 5.0,SAS Institute Japan, Ltd.) was used for the statistical analysis. […] ED50s were calculated from values of tumor growth inhibition percentage using XL fit program #509 (MS Excel Add Version 3.0.5 Build -In: XLfit3 12, ID Business Solutions Ltd.)

Data set [2] has as its system Calu-6 human lung cancer xenograft. It counts as in vivo. As to conditions: day 32 after inoculation. As for the experimental part: The Calu-6 human lung carcinoma cell line was purchased from American Type Culture Collection (MD, U.S.A.). The cells were cultured in Eagle's MEM (Sigma-Aldrich corporation, MO, U.S.A.) supplemented with 0.1 milli mol/L Non-essential amino acids (Invitrogen corporation, CA, U.S.A.), 1 milli mol/L sodium pyruvate (Invitrogen corporation, CA, U.S.A.), and 10% (v/v) fetal bovine serum (Roche Diagnostics KK, Tokyo, Japan).
60 of 5-week-old male athymic nude mice (BALB/c nu/nu) were purchased from Charles River Japan, Inc. (Yokohama, Japan). All mice were kept for 8 days in the animal facility of Kamakura Research Laboratories of Chugai Pharmaceutical Co., Ltd. before subjection to the experiment.
The title compound was synthesized at Kamakura Research Laboratories of Chugai Pharmaceutical Co., Ltd. Irinotecan (Topotecin™, lot. No. EQAZF13) was obtained from Daiichi Pharmaceutical Co., Ltd. (Tokyo, Japan). The title compound was dissolved in dimethyl sulfoxide (DMSO) and diluted into 2.5 % DMSO solution with saline (For Injection; Ohtsuka Pharmaceutical Industry Co., Ltd., Tokushima, Japan) at the date of administration. Irinotecan was diluted with saline at the date of administration.
The in vivo evaluation procedure for anticancer drugs was based on the methods described by Plowman, et al. (1997) for xenograft models. See, “Anticancer Drug Development Guide: Preclinical Screening, Clinical Trials, and Approval, Teicher B (ed) pp. 101-125, specifically Chap. 6, “Human Tumor Xenograft Models in NCI Drug Development”, hereby incorporated by reference. A single cell suspension of Calu-6 (5.7×10^6 cells per mouse) was inoculated subcutaneously into the right flank of each mouse. The tumor volume was estimated by using the equation ab^2/2, where a and b represent tumor length and width, respectively. Mice bearing tumors of between 181 and 326 mm^3 were selected on day 11 after tumor inoculation and were randomly divided into 10 groups, consisting of 5 mice each. […] Drug administration was initiated after mice were randomized and divided into groups. The tide compound (0.375 mg/kg; 0.75 mg/kg; 1.5 mg/kg or 3 mg/kg), irinotecan (80 mg/kg) and each vehicles were administered intravenously. Tumor volume and body weight of each mouse were measured twice a week. […] Tumor growth inhibition was calculated by using the equation (1-ΔT/ΔC)×100, where ΔT represents the tumor volume difference from the initial treatment date of treated group and ΔC represents the tumor volume difference from the initial treatment date of vehicle group.

Data set [3] is described as follows: Maximum tolerated dose (neither lethality nor more than 20% body weight loss) in mice. As to conditions: BALB/c nu/nu (athymic nude), mouse, in vivo, dose with neither lethality nor more than 20% body weight loss. An excerpt: The in vivo evaluation procedure for anticancer drugs was based on the methods described by Plowman, et al. (1997) for xenograft models. See, “Anticancer Drug Development Guide: Preclinical Screening, Clinical Trials, and Approval, Teicher B (ed) pp. 101-125, specifically Chap. 6, “Human Tumor Xenograft Models in NCI Drug Development”, hereby incorporated by reference.
See, “Anticancer Drug Development Guide: Preclinical Screening, Clinical Trials, and Approval, Teicher B (ed) pp. 101-125, specifically Chap. 6, “Human Tumor Xenograft Models in NCI Drug Development”, hereby incorporated by reference.
The in vivo evaluation procedure for anticancer drugs was based on the methods described by Plowman, et al. (1997) for xenograft models. See, “Anticancer Drug Development Guide: Preclinical Screening, Clinical Trials, and Approval, Teicher B (ed) pp. 101-125, specifically Chap.

Usually MTD stands for the largest dose that counted as tolerated. In the case of `CC[C@H](C)[C@@H]([C@@H](CC(=O)N1CCC[C@H]1[C@H](SC)[C@@H](C)C(=O)N(C)CCc1cccc(O)c1)OC)N(C)C(=O)[C@@H](NC(=O)[C@H](C(C)C)N(C)C)C(C)C` [compound of formula (I-A), N-[1-({1-sec-Butyl-4-[2-(2-{[2-(3-hydroxy-phenyl)-ethyl]-methyl-carbamoyl}-1-methylsulfanyl-propyl)-pyrrolidin-1-yl]-2-methoxy-4-oxo-butyl}-methyl-carbamoyl)-2-methyl-propyl]-2-dimethylamino-3-methyl-butyramide], in data set [1], the “volume of tumor in comparison with control” value is “decreased significantly”. The tumor growth inhibition in data set [2] (0.375 mg/kg i.v. weekly x3) amounted to 11%; in data set [2] (0.75 mg/kg i.v. weekly x3), 21%; in data set [2] (1.5 mg/kg i.v. weekly x3), 41%; in data set [2] (3 mg/kg i.v. weekly x3), 117%. Further, the MTD in data set [3] amounted to 6 mg/kg.
